Assay results from patent publication US20210238551A1, “Method for Generating Regulatory T Cells” (Osaka University, priority 2018, published 2021).

Tests used:
mouse naïve T cells = assay: Bisulfite sequencing of regulatory T cell-specific demethylation in regulatory T cells induced from mouse naïve T cells; type: cell-based; settings: 10 μg/ml or 30 μg/ml ascorbic acid in basal medium, Example 1 culture system, FIG. 3
Experimental: (§1) Genomic DNA was obtained from induced cells, treated with MethylEasy Xceed Rapid DNA Bisulphite Modification Kit (Human Genetic Signatures), and then examined for demethylations in genes specific to regulatory T cells. The demethylations in each gene were analyzed by using known methods and primers (Floess et al. (2007) PloS Biology Volume 5, Issue 2, e38, and Ohkura et al. (2012) Immunity 37(5) 785-799).
(§2) For the analysis in mouse Foxp3 CNS2 region, 5′-[…]-3′ (SEQ ID NO: 1) was used as the primer on the forward side, and 5′-[…]-3′ (SEQ ID NO: 2) was used as the primer on the reverse side. For the analysis in human Foxp3 CNS2 region, 5′-[…]-3′ (SEQ ID NO: 3) was used as the primer on the forward side, and 5′-[…]-3′ (SEQ ID NO: 4) was used as the primer on the reverse side.
Mouse naïve T cells were obtained from lymph nodes of eFox reporter mice by FACS. […] We analyzed regulatory T cell-specific demethylation sites and commonly methylation sites in Foxp3, CTLA4, Eos, and Helios. […]

[1] = test system: human CD4+ CD25- CD45RA+ T cells; assay: Bisulfite sequencing of demethylation in Foxp3 CNS2 region in regulatory T cells induced from human T cells; type: cell-based; settings: combined with ascorbic acid, FIG. 13
Experimental: as §1, §2
Human CD4^+ CD25^− CD45RA^+ T cells (human T cells) were stimulated in the basal medium comprising anti-CD3 antibody, anti-CD28 antibody, and IL-2 for 3 days. The cells were then cultured for pretreatment in the basal medium supplemented with only IL-2 for 4 days. […]

human T cells = settings: existing methods, Non-patent literature 3; cited from earlier work

Structure (SMILES): O=C1O[C@H]([C@@H](O)CO)C(O)=C1O [ascorbic acid]
- degree of demethylations at regulatory T cell-specific sites on adding ascorbic acid (mouse naïve T cells): degree of the demethylations was further increased
- demethylation effect in human T cell-derived regulatory T cells [1]: demethylation effect of ascorbic acid was also observed
- induction of regulatory T cell-specific demethylations in human T cells (human T cells): cannot induce regulatory T cell-specific demethylations in human T cells
